Key:
Type in all cases: binding
[1] = biological target: T1, DOR (delta-opioid receptor) (Rattus norvegicus, UniProt P33533); settings: 50 mM Tris-HCl pH 7.4, 35 °C, 45 min; read-out: DOR^a / Ki ± S.E.M.
T1 construct: gene Oprd1; native full-length receptor in rat brain membrane homogenate

MOR (mu-opioid receptor) = biological target: T2, MOR (mu-opioid receptor) (Rattus norvegicus, UniProt P33535); settings: 50 mM Tris-HCl pH 7.4, 35 °C, 45 min; read-out: MOR^a / Ki ± S.E.M.
T2 construct: gene Oprm1; native full-length receptor in rat brain membrane homogenate

[2] = biological target: T3, KOR (kappa-opioid receptor) (Cavia porcellus, UniProt P41144); settings: 50 mM Tris-HCl pH 7.4, 25 °C, 30 min; read-out: KOR^b / Ki ± S.E.M.
T3 construct: gene OPRK1; native full-length receptor in guinea pig brain membrane homogenate
T3 sequence (P41144 whole entry): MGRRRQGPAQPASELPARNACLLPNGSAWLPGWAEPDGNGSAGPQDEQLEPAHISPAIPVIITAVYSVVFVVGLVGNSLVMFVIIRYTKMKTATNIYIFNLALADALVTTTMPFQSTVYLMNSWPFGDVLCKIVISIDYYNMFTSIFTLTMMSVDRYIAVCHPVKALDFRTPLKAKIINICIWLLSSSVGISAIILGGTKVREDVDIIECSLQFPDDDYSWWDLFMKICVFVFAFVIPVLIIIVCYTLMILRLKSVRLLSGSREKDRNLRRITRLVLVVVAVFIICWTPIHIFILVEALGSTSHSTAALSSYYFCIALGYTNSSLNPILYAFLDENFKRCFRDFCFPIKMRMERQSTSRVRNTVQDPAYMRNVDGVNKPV
Source text: [3H]HS665 displacement, guinea pig brain membranes on KOR (kappa-opioid receptor)

T2 sequence (P33535 whole entry): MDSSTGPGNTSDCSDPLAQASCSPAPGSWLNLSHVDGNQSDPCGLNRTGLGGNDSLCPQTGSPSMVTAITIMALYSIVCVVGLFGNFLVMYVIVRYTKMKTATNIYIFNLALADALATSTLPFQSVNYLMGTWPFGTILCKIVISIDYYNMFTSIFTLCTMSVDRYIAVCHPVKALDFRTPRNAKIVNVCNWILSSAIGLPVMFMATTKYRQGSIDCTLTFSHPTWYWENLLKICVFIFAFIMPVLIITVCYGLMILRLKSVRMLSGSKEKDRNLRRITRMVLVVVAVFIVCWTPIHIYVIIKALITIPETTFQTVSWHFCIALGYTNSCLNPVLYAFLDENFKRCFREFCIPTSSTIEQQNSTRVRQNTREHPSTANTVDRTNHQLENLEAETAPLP
T1 sequence (P33533 whole entry): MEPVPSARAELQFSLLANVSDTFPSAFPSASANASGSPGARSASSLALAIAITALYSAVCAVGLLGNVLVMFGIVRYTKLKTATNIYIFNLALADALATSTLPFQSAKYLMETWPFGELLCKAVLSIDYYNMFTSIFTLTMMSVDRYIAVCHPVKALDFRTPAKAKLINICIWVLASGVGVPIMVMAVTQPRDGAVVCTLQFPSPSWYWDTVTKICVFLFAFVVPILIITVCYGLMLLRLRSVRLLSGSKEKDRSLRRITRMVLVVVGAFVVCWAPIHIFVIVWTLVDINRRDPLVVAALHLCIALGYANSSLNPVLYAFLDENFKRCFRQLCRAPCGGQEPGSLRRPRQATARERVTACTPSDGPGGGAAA

Structure (SMILES)	Ki [1] [nM]	Ki (MOR (mu-opioid receptor)) [nM]	Ki [2] [nM]
Oc1ccc2c3c1O[C@H]1[C@@H](O)C=C[C@H]4[C@@H](C2)N(CCN2CCOCC2)CC[C@@]341 [9a]	25.3 ± 1.5	389 ± 17	20.3 ± 4.2
Oc1ccc2c3c1O[C@H]1[C@@H](O)C=C[C@H]4[C@@H](C2)N(CCN2CCCCC2)CC[C@@]341 [9b]	44.9 ± 7.2	436 ± 18.8	138 ± 42.3
Oc1ccc2c3c1O[C@H]1[C@@H](O)C=C[C@H]4[C@@H](C2)N(CCN2CCCC2)CC[C@@]341 [9c]	34.1 ± 7.1	62.3 ± 2.6	6.9 ± 4.6
O=C(CN1CC[C@]23c4c5ccc(O)c4O[C@H]2[C@@H](O)C=C[C@H]3[C@H]1C5)N1CCOCC1 [10a]	–	394 ± 186	3.6 ± 1.9
O=C(CN1CC[C@]23c4c5ccc(O)c4O[C@H]2[C@@H](O)C=C[C@H]3[C@H]1C5)N1CCCCC1 [10b]	> 10000	1500 ± 664	–
O=C(CN1CC[C@]23c4c5ccc(O)c4O[C@H]2[C@@H](O)C=C[C@H]3[C@H]1C5)N1CCCC1 [10c]	839 ± 99.9	521 ± 218	10.7 ± 7.7
O=C1CC[C@@]2(O)[C@H]3Cc4ccc(O)c5c4[C@@]2(CCN3CC(=O)N2CCOCC2)[C@H]1O5 [12a]	125 ± 39.6	684 ± 32.7	–
O=C1CC[C@@]2(O)[C@H]3Cc4ccc(O)c5c4[C@@]2(CCN3CC(=O)N2CCCCC2)[C@H]1O5 [12b]	1140 ± 532	1490 ± 612	–

From paper PMC10660610 (Scientific Reports, 2023)
